The values below come from ChEMBL document CHEMBL1153342 (J Med Chem, 2009).

Molecules are shown by their SMILES.

The target in data set [1] is T1, Serine/threonine-protein kinase pim-2 (Homo sapiens, UniProt Q9P1W9). The data set can be described thus: Inhibition of Pim2 in presence of 1 uM ATP.
Data set [2] addresses T2, Serine/threonine-protein kinase pim-1 (Homo sapiens, UniProt P11309). Description: Inhibition of Pim1 in presence of 1 uM ATP.
Data set [3] concerns the target Casein kinase II subunit alpha' (Homo sapiens) (UniProt P19784). Description: Inhibition of CK2alpha2 at 10 uM.
In data set [4] the target is Casein kinase II subunit alpha (Homo sapiens) (UniProt P68400). The data set can be described thus: Inhibition of CK2alpha1 at 10 uM.
For data set [5], the target named is T1, Serine/threonine-protein kinase pim-2. Description: Inhibition of Pim2.
The nature of data set [6]: Permeability from apical to basolateral side of human Caco-2 cells at 50 uM by LC/MS-MS analysis. It is filed as ADME, cell-based. Conditions: read-out: permeability. On the technique in general: Caco-2 monolayers are a common model of the intestinal barrier.
The nature of data set [7]: Solubility at pH 2.0 after 48 hrs by HPLC. The format is physicochemical. The note with it: buffer.
Data set [8] can be described thus: Permeability from basolateral to apical side of human Caco-2 cells at 50 uM by LC/MS-MS analysis. The format is ADME, cell-based. Conditions: read-out: permeability.
Data set [9] is described as follows: Solubility at pH 7.4 after 48 hrs by HPLC. The format is physicochemical. The note with it: buffer.
Data set [10] is described as follows: Metabolic stability in human liver microsomes assessed as half life by HPLC. The format is ADME, Microsome. (Microsomes from liver hold many membrane-bound enzymes, among them those of drug oxidation.)
Data set [11] deals with T2, Serine/threonine-protein kinase pim-1. The data set can be described thus: Inhibition of Pim1 after 15 mins by scintillation counting-based competition assay in presence of 100 uM [gamma33P]ATP.

Usually IC50 stands for the concentration at which inhibition is half-maximal. In the case of `NCCCCNc1cncc(-c2cccc(/C=C/C(=O)O)c2)n1`, the IC50 in [1] stood at 22 nM; in [2], 33 nM. For orientation: inhibition means the change of the read-out against control, counted positive when it falls. A high value points to a response far below the control. As to `COC(=O)/C=C/c1cccc(-c2cncc(N3CCCN(C)CC3)n2)c1`, the inhibition amounted to 7% in data set [3] and 14% in data set [4]. Also, the IC50 in [5] was > 8000 nM. Regarding `O=C(O)/C=C/c1cccc(-c2cnccn2)c1`, the IC50 in data set [5] was 2200 nM. Take `CN1CCCN(c2cccc(-c3cccc(/C=C/C(=O)O)c3)n2)CC1`: the concentration for half-maximal inhibition (IC50) amounted to 50 nM in data set [2] and 46 nM in data set [5]. In turn, `O=C(O)/C=C/c1cccc(-c2cncc(N3CCCNCC3)n2)c1` returned an IC50 in data set [5] of 10 nM. In general, solubility refers to the concentration that dissolves in the medium under given conditions. The low end stands for little dissolved substance, the high end for much dissolved substance. By half-life is commonly meant the time needed for the level to fall by half in the phase considered. `CN1CCCN(c2cncc(-c3cccc(/C=C/C(=O)O)c3)n2)CC1`: the Papp A→B at 50 µM in data set [6] came to 2.73 ×10⁻⁶ cm/s. Also, the solubility at 48 h in data set [7] and in [9] was > 2000 µg/mL in each case. Besides, in [8], the Papp B→A at 50 µM was 3.01 ×10⁻⁶ cm/s. In addition, the half-life in data set [10] stood at 2.65 h.

`O=C(O)/C=C/c1cccc(-c2cncc(NCC3CCNCC3)n2)c1` had an IC50 in [5] of 25 nM.

In the case of `NCC1CCN(c2cncc(-c3cccc(/C=C/C(=O)O)c3)n2)CC1`, the IC50 in [5] was determined as 17 nM. With `CN1CCCN(c2cncc(-c3cccc(/C=C/C(N)=O)c3)n2)CC1`, the values for the inhibition in [3] and in data set [4] were 36% and 42%, respectively. For `O=C(O)c1ccc(-c2cnc3ccc(NCC4CC4)nn23)cc1`, the IC50 in data set [11] came out at 120 nM. With `COCCCNc1cncc(-c2cccc(/C=C/C(=O)O)c2)n1`, the IC50 in [1] is 480 nM; in data set [2], 370 nM.
